The results in this text go back to patent US20070142456A1, “Method for inhibiting cancer development by fatty acid synthase inhibitors” (FASgen, LLC, priority 2002, published 2007).

Series [1] has as its system mammary glands of FVB/N mice. The series can be described thus: Mammary gland development in non-transgenic FVB/N control mice treated with C75. The series is classed as in vivo. Conditions: FVB/N animals, FIG. 9. The protocol:
(§1) Fifteen 8-10 week old, neu-N transgenic mice were treated intraperitoneally (ip) with C75 at 30 mg/kg weekly, along with fifteen vehicle controls (RPMI). Three mice from the treatment and control groups were sacrificed by carbon dioxide asphyxiation at two-week intervals beginning at week two (two weeks after the first C75 treatment at 8-10 weeks of age). All animals were injected with 1 mg of BrdU two hours prior to sacrifice. Entire inguinal mammary glands were removed along with the intramammary lymph node that was grossly identifiable. Additionally, kidneys, liver and skin samples were collected from each animal. The […] from one side and the kidneys, liver and skin samples were fixed in neutral-buffered formalin, the other was fixed in Carnoy's fixative for whole-mount preparation. In addition, mammary glands from a non-transgenic age-matched FVB/N control mouse were removed for similar analysis at week 10 (age 18-20 weeks).

Series [2] relates to mammary glands of neu-N transgenic mice. The experiment in a line: Mechanism of action: mammary gland whole mounts and immunohistochemistry in neu-N transgenic mice. The note with it: 30 mg/kg ip weekly. The series is classed as in vivo, mouse. Here is the method:
as §1
Following fixation in 10% neutral-buffered formalin for 24 hours, the mammary glands were embedded in paraffin. Six 4 micron slides were prepared from each tissue block, with the first slide stained with hematoxylin and eosin. The remaining unstained sections were utilized for immunohistochemical analysis of the preneoplastic lesions and surrounding breast tissue with the following antibodies: FAS, BrdU and p21/Waf-1 (Dako, Carpinteria, Calif.), Akt and Phospho-Akt (Cell Signaling Technology, Beverly, Mass.), and neu (Santa Cruz Biotechnology, Inc., Santa Cruz, Calif.) apoptosis (ApopTag Peroxidase In Situ Oligo Ligation Kit, Serologicals Corporation, Temecula, Calif.). Staining was assessed by counting the number of positive cells per 500 total cells in the ductal and lobular structures at 400×. Statistical analysis was performed using t-tests on Prism 3 software. The Carnoy's fixed tissue was stained with carmine red as described and whole-mounted on glass slides.

Series [3] relates to fatty acid synthesis in NT5 cancer cells. The experiment in a line: Inhibition of fatty acid synthesis: [14C]acetate incorporation into total lipids in NT5 cells. The format is cell-based, mouse. The note with it: 4 h treatment, [14C]acetate during last 2 h, FIG. 1. The protocol: (See FIG. 1). 5×10^4 NT5 cells were plated in 24-well plates. Following overnight attachment, cells were treated with cerulenin and C75 diluted in DMSO at 5 mg/ml for 4 h, with control cells receiving vehicle alone. During the last 2 h of drug treatment, cells were treated with 1 μCi [^14C]acetate. Total lipids were then extracted and counted. Statistical analysis (i.e., two tailed t-tests) of the results are as follows: Control-C75 5 μg/ml, p=0.116; Control-C75 10 μg/ml, p=0.018; Control-Cerulenin 5 μg/ml, p=0.002; Control-Cerulenin 10 μg/ml, p=0.002.
NT cell lines are established from tumors that developed in transgenic mice (Reilly, R., Gottlieb, M., Ercolini, A., Machiels, J., Kane, C., Okoye, F., Muller, W., Dixon, K., and Jaffee, E., “HER-2neu Is a Tumor Rejection Target in Tolerized HER-2/neu Transgenic Mice,” Cancer Research, 60: 3569-3576, 2000; Reilly, R., Machiels, J., Emens, L., Ercolini, A., Okoye, F., Lei, R., Weintraub, D., and Jaffee, E., “The Collaboration of Both Humoral and Cellular HER-2/neu-targeted Immune Responses Is Required for the Complete Eradication of HER-2/neu-expressing Tumors,” Cancer Research, 61: 880-883, 2001), and provide an in vitro model for testing the FAS inhibitors C75 and cerulenin.

Series [4] concerns HER-2/neu breast cancer transgenic mice. The experiment in a line: Inhibition of cancer development in HER-2/neu breast cancer transgenic mouse model. The format is in vivo. The text has this: Derived from the FVB/N strain, neu-N transgenic mice express the non-transforming rat neu cDNA under the control of a mammary-specific promoter. As a consequence, the mice develop spontaneous mammary adenocarcinomas beginning at approximately 125 days, with nearly all of the mice harboring tumors by 300 days (Guy, C., Webster, M., Schaller, M., Parsons, T., Cardiff, R., and Muller, W., “Expression of the neu protooncogene in the mammary epithelium of transgenic mice induces metastatic disease,” Proc. Natl. Acad. Sci. USA, 89: 10578-10582, 1992). […] Although the activated neu model has the advantage of more rapid tumor development (Guy, C., Cardiff, R., and Muller, W., “Activated neu induces rapid tumor progression,” Journal of Biological Chemistry, 271: 7673-7678, 1996), this point mutation has not been identified in human breast cancer (Lofts, F. and Gullick, W., “C-erbB2 amplification and overexpression in human tumors,” Cancer Treat. Res., 61: 161-179, 1992). Thus, the HER-2/neu breast cancer transgenic mouse model more closely resembles human disease where neu is overexpressed, not mutated.
(See FIG. 4) Thirty HER-2/neu breast cancer transgenic mice were used for the study. Fifteen (15) mice received weekly doses of C75 (30 mg/kg in 0.1 ml RPMI) for three months beginning at 5 weeks of age and 15 mice received vehicle alone. Mice were observed daily and the first appearance of breast tumors were recorded. Two (2) mice in the controls and 6 in the treated group died during the study. […] Fifty-percent (50%) of the control mice developed tumors after approximately 200 days versus 300 days for the C75 treated animals. Moreover, three treated animals remained tumor free for nearly 18 months, the duration of their lives.

Series [5] has as its system NT5 cancer cells. The experiment in a line: Inhibition of NT5 cancer cell growth in vitro (crystal violet, O.D. 490 nm). The series is classed as cell-based, mouse. The note with it: 72 hours, FIG. 2. The protocol:
(See FIG. 2). 1×10^4 cells were plated in 24-well plates. Following overnight attachment, cells were treated with C75 or cerulenin diluted in DMSO at 5 mg/ml, with control cells receiving vehicle alone. After 72 hours, cells were stained with crystal violet (0.2% in 10% methanol), solubilized in 1% SDS, and the O.D. measured at 490 nm. Two-tailed t-test: Control-C75 5 μg/ml, p=0.0003; Control-C75 10 μg/ml, p<0.0001; Control-Cerulenin 5 μg/ml, p<0.0001; Control-Cerulenin 10 μg/ml, p<0.0001.

For series [6], the system named is NT5 cancer cell allografts. The series can be described thus: Growth of NT5 cancer cell allografts in FVB/N mice. The note with it: 30 mg/kg intraperitoneal every six days, FIG. 3. The series is classed as in vivo. Here is the method: (See FIG. 3). Fourteen animals received 0.1 ml packed cultured NT5 cells in the flank. When measurable tumors appeared, seven animals were treated with C75 (30 mg/kg in 0.1 ml RPMI, intraperitoneal injection) every six days and seven animals received vehicle control. Error bars in FIG. 3 represent standard error of the mean.

The mark [7] stands for this setting: immunohistochemistry, versus controls and FVB/N mice.
Setting [8] is: mammary tissue, versus controls and FVB/N mice.
The mark [9] stands for this setting: 30 mg/kg weekly for three months beginning at 5 weeks of age.

Consider `C=C1C(=O)OC(CCCCCCCC)C1C(=O)O` (stereo not drawn) [C75, tetrahydro-3-methylene-2-oxo-5-n-octyl-4-furancarboxylic acid], for which the “morphological difference in mammary structures, C75 treated versus controls” value in series [1] is “no significant morphological difference”. The “tissue restriction of the effects (other normal duct structures in skin, liver or kidney)” value in series [2] is “restricted to the breast epithelial cells that overexpress neu”. The “number of mammary duct structures, their thickness and number of budding epithelial structures” value in series [2] (following 8-10 weeks of treatment, versus vehicle controls and FVB/N animals) is “significant reduction”. In addition, in series [2] (setting [7]), the Akt expression result is listed as “decreased”, the FAS expression entry is recorded as “decreased”, the Phospho-Akt expression entry is given as “decreased” and the neu expression entry is “decreased”. Further, the p21/Waf1 expression entry in series [2] (setting [7]) is on record as “decreased”. Besides, in series [2] (setting [8]), the “DNA synthesis (BrdU)” value is “decreased” and the apoptotic changes result is “increased”. Also, in series [3], the “inhibition of fatty acid synthesis in NT5 cells” value is “inhibit fatty acid synthesis in NT5 cells at levels similar to previous studies with human cell lines”. For the same compound, in series [4] (setting [9]), the “time after which 50% of the mice developed tumors” value was roughly 300 days and the “tumor development (log-rank analysis)” value was “significantly delayed”. Besides, the “time three treated animals remained tumor free (duration of their lives)” value in series [4] (30 mg/kg weekly for three months, three of 15 treated animals) is recorded as roughly 18 months. Also, the development of cancer result in series [4] (HER-2/neu transgenic mice, FIG. 4) was “significantly inhibited the development of cancer”. For the same compound, in series [4] (as restated in the description), the “time three animals remained tumor free (duration of their lives)” value was roughly 1.5 years. In addition, the “mice that died during the study” value in series [4] (treated group of 15 mice, 30 mg/kg weekly, 2 died in controls) was found to be 6 mice. For the same compound, the “growth of NT5 cancer cells (O.D. 490 nm)” value in series [5] was “significantly reduced the growth of the cancer cells”. Further, the “growth of NT5 tumor cell allografts” value in series [6] is recorded as “significantly reduced the growth”.
`C/C=C/C/C=C/CCC(=O)[C@H]1O[C@H]1C(N)=O` [cerulenin, 2,3-epoxy-4-oxo-7,10-dodecadienoylamide, reference compound]: the “inhibition of fatty acid synthesis in NT5 cells” value in series [3] is “inhibit fatty acid synthesis in NT5 cells at levels similar to previous studies with human cell lines”. The “growth of NT5 cancer cells (O.D. 490 nm)” value in series [5] is listed as “significantly reduced the growth of the cancer cells”.
